Assay results taken from article PMC7037732, “Synthesis of Combretastatin A-4 and 3′-Aminocombretastatin A-4 derivatives with Aminoacid Containing Pendants and Study of their Interaction with Tubulin and as Downregulators of the VEGF, hTERT and c-Myc Gene Expression” (Molecules, 2020).

Experiments:
[1] = tested on: HEK-293 (human embryonic kidney cells); experiment: Inhibition of cell proliferation (MTT), nontumor HEK-293; type: cell-based; conditions: Homo sapiens, Table 1, 48 h of treatment (footnote), average ±SD of three experiments
Source text: (§1) The ability of the synthetic compounds to inhibit cell proliferation was established by means of their IC50 values towards the tumor cell lines HT-29 (human colon adenocarcinoma), MCF-7 (breast adenocarcinoma) and A-549 (human pulmonary adenocarcinoma), as well as towards the nontumor cell line HEK-293 (human embryonic kidney cells). Results for compounds derived from CA-4 are presented in Table 1, along with the calculated selectivity indexes SIA (for HT-29 cell line), SIB (for MCF-7 cell line) and SIc (for A-549 cell line), obtained by dividing the IC50 values of the nontumor cell line (HEK-293) by those of the corresponding tumor cell line. The higher the SI index, the higher the therapeutic safety margin.
(§2) Cell culture media were purchased from Gibco (Grand Island, NY, USA). Fetal bovine serum (FBS) was a product of Harlan-Seralab (Belton, U.K.). Supplements and other chemicals not listed in this section were obtained from Sigma Chemical Co. (St. Louis, MO, USA). Plastics for cell culture were supplied by Thermo Fischer Scientific Inc., Madrid, Spain. All tested compounds were dissolved in DMSO at a concentration of 10 μg/mL and stored at −20 °C until use. HT-29, MCF-7, A-549 and HEK-293 cell lines were maintained in a Dulbecco’s modified Eagle’s medium (DMEM) containing glucose (1 g/L), glutamine (2 mM), penicillin (50 IU/mL), streptomycin (50 μg/mL) and amphotericin B (1.25 μg/mL), supplemented with 10% FBS. Cells from human non-small lung carcinoma (clone A549; ATCC n°: CCL2, MD, USA) were routinely grown at 37 °C in a humidified atmosphere of 5% CO2. Cells were maintained in a standard medium composed of RPMI 1640 (Lonza, Group Ltd., Basel, Switzerland), supplemented with 10% fetal bovine serum (FBS), 2 mM L-glutamine and 1% penicillin and streptomycin (Invitrogen). Cells were free from mycoplasma as determined by MycoAlert tests (Lonza, Group Ltd., Basel, Switzerland).
(§3) A total of 5 × 10^3 HT-29, MCF-7 or HEK-293 cells in a total volume of 100 μL of their respective growth media were incubated with serial dilutions of the tested compounds. The 3-(4,5-dimethylthiazol-2-yl)-2,5-diphenyltetrazolium bromide (MTT; Sigma Chemical Co.) dye reduction assay in a 96-well microplate was used, as previously described. […] The resulting formazan was dissolved in 150 μL of 0.04 N HCl/2-propanol and read at 550 nm. All determinations were carried out in triplicate.

[2] = tested on: HT-29 (human colon adenocarcinoma); experiment: Inhibition of cell proliferation (MTT), HT-29; type: cell-based; conditions: Homo sapiens, Table 1, 48 h of treatment (footnote), average ±SD of three experiments
Source text: as §1, §2, §3

[3] = tested on: MCF-7 (breast adenocarcinoma); experiment: Inhibition of cell proliferation (MTT), MCF-7; type: cell-based, human; conditions: Homo sapiens, Table 1, 48 h of treatment (footnote), average ±SD of three experiments
Source text: as §1, §2, §3

[4] = tested on: A-549 (human pulmonary adenocarcinoma); experiment: Inhibition of cell proliferation (MTT), A-549; type: cell-based; conditions: Table 1, 48 h of treatment (footnote), average ±SD of three experiments
Source text: as §1
as §2, with “Switzerland). […]” for “Switzerland).”

[5] = tested on: purified tubulin; experiment: Critical concentration (CrC) for the assembly of purified tubulin in GAB; type: biochemical; conditions: compound 27.5 μM, tubulin 25 μM, glycerol (GAB) and GTP assembly buffer; control 7.9 ± 1.2
Method: The effect on the self-assembly of tubulin was determined by measuring the critical concentration (CrC).

[6] = tested on: A-549 cells; experiment: Cell cycle distribution by flow cytometry; type: cell-based, human; conditions: A-549, 24 h; for cells accumulated in the G2/M phase: concentration per compound as in Tables 6 and 7, control 14%
Method: The effects of some CA-4 derivatives on the cell cycle were evaluated in A-549 cells.
The effects of some AmCA-4 derivatives on the cell cycle were also evaluated in A-549 cells.
The supernatant and trypsinated cells were harvested and then centrifuged (1200 rpm, 5 min, 4 °C). The cell pellet was resuspended in 1 mL of cold 70% ethanol for 30 min at −20 °C. Cells were centrifuged (2000 rpm, 5 min, 4 °C) to remove ethanol, and then the cell pellet was resuspended in the staining mix containing 50 µg/mL propidium iodide (Molecular Probes, France) and 100 µg/mL RNAse A (Sigma, France) in PBS for 20 min at room temperature in darkness. Samples were analyzed on a Becton Dickinson FACScan flow cytometer using the CellQuest software, which was also used to determine the percentage of cells in the G2/M phases of the cell cycle. PI was excited at 488 nm, and fluorescence analyzed at 620 nm on channel Fl-2.

Row | IC50 ([2]; HT-29) [µM] | IC50 ([3]; MCF7) [µM] | SMILES | IC50 ([1]; HEK293, 48 h) [µM] | IC50 ([2]; HT-29, 48 h) [µM] | IC50 ([3]; MCF7, 48 h) [µM] | IC50 ([4]; Homo sapiens, A549, 48 h) [µM] | CrC (critical concentration) [5] [µM] | G0/G1 ([6]; 75 μM) [%] | G2/M ([6]; 75 μM) [%] | S ([6]; 75 μM) [%] | IC50 [4] [µM] | G0/G1 ([6]; 50 μM) [%] | G2/M ([6]; 50 μM) [%] | S ([6]; 50 μM) [%] | cells accumulated in the G2/M phase [6] | IC50 ([1]; HEK293) [µM] | G0/G1 ([6]; 25 μM) [%] | G2/M ([6]; 25 μM) [%] | S ([6]; 25 μM) [%]
1 |  |  | COC(=O)CNC(=O)COc1cc(/C=C\c2cc(OC)c(OC)c(OC)c2)ccc1OC [Compound 3.1] | 9 ± 1 | 12 ± 2 | 8 ± 2 | 26 ± 2 | 9.52 ± 0.05 |  |  |  |  |  |  |  |  |  |  |  | 
2 |  |  | COC(=O)[C@@H](NC(=O)COc1cc(/C=C\c2cc(OC)c(OC)c(OC)c2)ccc1OC)C(C)C [Compound 3.2] | 5 ± 2 | 24 ± 4 | 12 ± 6 | 24 ± 1 | 11.7 ± 2.3 | 42 ± 3 | 44 ± 1 | 14 ± 4 |  |  |  |  |  |  |  |  | 
3 |  |  | COC(=O)[C@H](CC(C)C)NC(=O)COc1cc(/C=C\c2cc(OC)c(OC)c(OC)c2)ccc1OC [Compound 3.3] | 9 ± 2 | 29 ± 6 | 19 ± 6 | < 10 | 9.4 ± 1.4 | 45 ± 6 | 36 ± 4 | 19 ± 2 | 8 ± 1 |  |  |  |  |  |  |  | 
4 |  |  | COC(=O)[C@H](Cc1ccccc1)NC(=O)COc1cc(/C=C\c2cc(OC)c(OC)c(OC)c2)ccc1OC [Compound 3.4] | 4 ± 1 | 28 ± 7 | 8 ± 2 | < 10 |  |  |  |  | 9 ± 2 | 33 ± 4 | 51 ± 2 | 16 ± 5 | 50–70% |  |  |  | 
5 |  |  | COC(=O)[C@H](CO)NC(=O)COc1cc(/C=C\c2cc(OC)c(OC)c(OC)c2)ccc1OC [Compound 3.6] | 7 ± 2 | 9 ± 3 | 7 ± 3 | 18 ± 4 |  | 30 ± 9 | 53 ± 3 | 17 ± 6 |  |  |  |  | 50–70% |  |  |  | 
6 |  |  | COc1ccc(/C=C\c2cc(OC)c(OC)c(OC)c2)cc1OCC(=O)N[C@@H](CO)C(=O)O [Compound 4.6] | 17 ± 1 | 39 ± 16 | 27 ± 9 | 36 ± 4 | 7.9 ± 1.6 |  |  |  |  |  |  |  |  |  |  |  | 
7 |  |  | COc1ccc(/C=C\c2cc(OC)c(OC)c(OC)c2)cc1OCC(=O)N[C@H](C(=O)O)C(C)O (some centres unmarked) [Compound 4.7] | 23 ± 9 | 34 ± 11 | 40 ± 9 | 41 ± 3 | 10.1 ± 1.8 |  |  |  |  |  |  |  |  |  |  |  | 
8 | 55 ± 5 | 43 ± 7 | COc1ccc(/C=C\c2cc(OC)c(OC)c(OC)c2)cc1OCC(=O)N[C@@H](Cc1ccc(O)cc1)C(=O)O [Compound 4.8] |  |  |  | 30 ± 7 | 8.5 ± 2.0 |  |  |  |  |  |  |  |  | 33 ± 1 |  |  | 
9 |  |  | COC(=O)[C@H](NC(=O)COc1cc(/C=C\c2cc(OC)c(OC)c(OC)c2)ccc1OC)C(C)C [Compound 5.1] | 3.9 ± 0.6 | 27 ± 7 | 9 ± 3 | < 10 |  |  |  |  | 5 ± 1 |  |  |  |  |  | 53 ± 8 | 31 ± 7 | 16 ± 2
